Data reported in patent publication US20220380341A1, “INHIBITORS OF HIV-1 NEF FOR THE TREATMENT OF HIV DISEASE” (priority 2018, published 2022).
Like-named read-outs stand apart in the source and are kept apart here.

What was measured:
[1] = molecular target: HIV-1 NefNL4-3 (Human immunodeficiency virus type 1 group M subtype B, UniProt P03406, A33V/T15A/T51N/V11I); assay: Surface plasmon resonance binding to recombinant full-length Nef (NL4-3); conditions: for Nef NL4-3 Binding, SPR 1:1 or 2-site fitting KD1: 1:1 Langmuir fit where the KD2 cell says '1 to 1 fitting', else 2-site fit; for RU30/RUNef (extent of binding): response units at 30 μM relative to Nef immobilized on the SPR chip
[2] = tested on: HIV-1NL4-3; assay: HIV-1 infectivity assay in TZM-bl reporter cell line (LTR-luciferase, 48 h); assay type: cell-based; conditions: for inhibition at 1 µM: Human immunodeficiency virus 1, TZM-bl
Summary of the method: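 Percent inhibition of HIV-1NL4-3 infectivity at 1 μM compound, from luciferase output of TZM-bl cells 48 h after infection. Scale anchors are DMSO-treated wild-type infection as zero and DMSO-treated Nef-defective infection as full Nef-dependent effect.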

[3] = tested on: uninfected PBMCs; assay type: cell-based; conditions: human
Description: (§1) FIG. 4. Inhibition of HIV-1 replication by compounds disclosed herein in PBMCs. Donor PBMCs were infected with HIV-1 in the presence of inhibitor concentrations ranging from 1 to 1,000 nM or the DMSO carrier solvent as a negative control (0.1% DMSO final). Replication was assessed by p24 Gag AlphaLISA (Perkin Elmer) […]. Each donor was also infected with Nef-defective HIV-1 to establish the baseline for Nef-dependent enhancement of replication in each culture. Cytotoxicity was assessed in uninfected PBMCs over the same incubation period using the CellTiter-Blue assay (Promega). Data were fit by non-linear regression analysis (GraphPad Prism v.7.04) to determine the IC50 and CC50 values shown.
(§2) Non-HLA-typed buffy coats (Source: Pittsburgh Central Blood Bank, #E3755) are received and processed within 24 hours of blood donation. PBMCs are isolated via rocking for RBC separation following 1:1 dilution with PBS, followed by Ficoll gradient centrifugation. The lymphocyte fraction is removed and washed several times for a final concentration of ˜150-300×10^6 cells per donor. Cells are activated for 3 days with 1-5 μg/mL PHA (Sigma) and 50 U/mL IL-2. Cells are plated at 750,000 cells/ml and viability is checked at day 3 using the Cell Titer Blue assay (Promega). If cells are >90% viable, then they are infected with HIV-1 NL4-3, wild-type or Δ-Nef mutant (input typically 30-500 pg/mL p24 capsid equivalents) in the presence or absence of Nef inhibitor analogs. IL-2 is included in the media at the time of infection. After 4 days, cells are lysed with 1% Triton X-100 for 1.5 h, checked for viability via Cell Titer Blue, and frozen/stored at −20° C. HIV-1 replication is assessed with a high-sensitivity HIV-1 p24 AlphaLISA assay (Perkin Elmer) in ½-volume 96-well plates, using one-half of the recommended assay volumes for all reagents (including samples). Assays are read on the BioTek Cytation5 instrument; readout is in AlphaUnits and replication in p24 pg/mL is determined using an HIV-1 p24 capsid protein standard included in the Alpha kit.

[4] = tested on: TZM-bl cell line; assay type: cell-based; conditions: human, 1 μM
Summary of the method: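 Luciferase read-out 48 h post-infection; compound at 1 μM during HIV-1NL4-3 infection of TZM-bl cells. Percent inhibition scaled to DMSO wild-type virus (0%) and DMSO Nef-defective virus (100% of Nef-dependent effect). Viability checked separately in uninfected cells by Cell Titer Blue.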

[5] = molecular target: T1, HIV-1 Nef SF2 (Human immunodeficiency virus type 1 group M subtype B, UniProt P03407); assay: biochemical; assay type: binding; conditions: two-step induced-fit model, Reichert SPR, read-out: Reichert SPR Nef SF2 (M) two-step fitting
T1 construct: made in house

[6] = molecular target: Nef from SIV (strain mac239) (Simian immunodeficiency virus, UniProt Q5QGG3); assay: biochemical
Description: Also shown are SPR data recorded on a Reichert 4-channel SPR instrument. […] Recombinant Nef is immobilized on the biosensor surface, and each compound is injected and association/dissociation kinetics are recorded. The resulting data for the 3 isoforms are each best-fit using both a two-site model and a two-step, induced-fit model. Dissociation constants (KD), calculated from the kinetic association and dissociation constants from all three isoforms, are shown in columns 6-7. Data were fit using three regimes and the resulting KD: from each model are shown in the Table: 1:1 Langmuir fit; 2-site fit, which yields low and high affinity components; and a 2-step induced fit model.

[7] = tested on: HIV-1 NL4-3; assay: HIV-1 replication in normal donor PBMCs (p24 Gag AlphaLISA); assay type: cell-based; conditions: Table 1, 4 days, words (Not active, Borderline) where no bound is given
Description: as §1
The tables also show data for HIV-1 Replication in normal donor peripheral blood mononuclear cells (PBMCs), which is assay is conducted as follows:
as §2

[8] = KD, M, Table 4, SPR fit 2-step induced fit, KD = koff/kon × koff2/(koff2 + kon2)
[9] = Nef NL4-3 Binding, SPR 2-state fitting KD, Table 1, 2-step induced-fit model
[10] = Reichert SPR Nef NL43 (M) two-step fitting, KD, two-step induced-fit model, Reichert SPR, Table 3
[11] = Table 4, 2-step induced fit, T = 1/koff2
[12] = read-out: Nef NL4-3 Binding, SPR 1:1 or 2-site fitting KD2, Table 1, 2-site fit, second component
[13] = 1.0 μM, TZM-bl reporter cell line, Table 4, read-out: % Infectivity Inhibition
[14] = 1 μM, TZM-bl, normalized: DMSO wild-type HIV-1 = 0%, Nef-defective HIV-1 = 100%, read-out: HIV-1 Infectivity % Inhibition norm. to Δ-Nef @ 1 μM
[15] = Table 1, TZM-bl cells, 1 μM, 48 h, 100% = Nef-defective HIV-1
[16] = Nef NL4-3 Binding, SPR 1:1 or 2-site fitting KD2, Table 1, 2-site fit, second component
[17] = 48 h, Table 1, TZM-bl cells, 1 μM, 48 h, 100% = Nef-defective HIV-1, read-out: HIV-1 Infectivity % Inhibition Norm. to Δ-Nef @ 1 μM
[18] = KD, M, Table 4, SPR fit 1:1 Langmuir, KD = koff/kon
[19] = Table 4, 1:1 Langmuir fit, T = 1/koff

SMILES | Kd [1] | Kd [1, 8] | Kd [1, 9] | Kd [1, 10] | T, minutes (residence time) [1, 11] | Kd [1, 12] | RU30/RUNef (extent of binding) [1] | inhibition at 1 µM [2, 13] | inhibition at 1 µM [2, 14] | Toxicity in HIV Replication PBMC (Toxic @ concentration) [3] | % Cell Viability [4] | Kd [5] | Kd [6] | inhibition at 1 µM [2, 17] | Percent Viability @ 1 μM (TZM-bl cells) [4] | HIV Replication PBMC IC50 vs. HIV NL4-3 [7] | Kd [1, 18] | T, minutes (residence time) [1, 19] | other results
Oc1c(CCc2ccncc2)c(-c2ccc(C(F)(F)F)cc2)nn1-c1nc2ccccc2[nH]1 [Compound I-101, 1-(1H-1,3-benzodiazol-2-yl)-4-[2-(pyridin-4-yl)ethyl]-3-[4-(trifluoromethyl)phenyl]-1H-pyrazol-5-ol] | 1.77e-06 M | 2.91e-10 M | 2.91e-10 M | 2.91e-10 M | 7.00E + 04 minutes | 1.47e-05 M | 1.33E- 02 | 100% | 128% | Toxic @ 1 μM | 76.3% | 1.43e-10 M | 25.4 nM |  |  |  |  |  | Nef NL4-3 Binding, SPR 1:1 or 2-site fitting KD1 ([1]; Table 1): No Interaction; HIV-1 Infectivity % Inhibition Norm. to Δ-Nef @ 1 μM [2, 15]: 78.5%; Toxicity % Viability @ 1 μM (TZM-bl) [4]: 76.3%; IC50 ([7]; Human immunodeficiency virus 1, NL43, PBMC, 96 h): ≤ 1 nM
CS(=O)(=O)c1ccc(-c2nn(-c3nc4ccccc4[nH]3)c(O)c2CCc2ccc(F)cc2)cc1 [Compound I-148, 1-(1H-1,3-benzodiazol-2-yl)-4-[2-(4-fluorophenyl)ethyl]-3-(4-methanesulfonylphenyl)-1H-pyrazol-5-ol] | 6.56e-07 M | 3.33e-10 M | 3.33e-10 M | 3.33e-10 M | 3.26E + 04 minutes |  | 1.32E- 02 | 98.1% | 98.1% | Toxic @ 1 μM | 75.5% | 2.07e-11 M | 1.08 nM | 98.1% | 75.5% | Not active |  |  | Kd [1, 16]: 1.77e-06 M
O=C(OCc1ccccc1)N1CCC(Cc2c(-c3ccc(C(F)(F)F)cc3)nn(-c3nc4ccccc4[nH]3)c2O)CC1 [Compound I-162, benzyl 4-{[1-(1H-1,3-benzodiazol-2-yl)-5-hydroxy-3-[4-(trifluoromethyl)phenyl]-1H-pyrazol-4-yl]methyl}piperidine-1-carboxylate] | 1.86e-09 M |  |  |  |  |  | 4.69E- 03 | 77.5% |  | Toxic @ 1 μM | 90.8% |  |  |  |  | Not active | 1.86e-09 M | 8.05E + 03 minutes | Nef NL4-3 Binding, SPR 1:1 or 2-site fitting KD1 ([1]; Table 1): No Interaction
O=C(OCc1ccccc1)N1CCC(c2nn(-c3nc4cccc(Cl)c4[nH]3)c(O)c2CCc2ccc(F)cc2)CC1 [Compound I-166, benzyl 4-[1-(7-chloro-1H-1,3-benzodiazol-2-yl)-4-[2-(4-fluorophenyl)ethyl]-5-hydroxy-1H-pyrazol-3-yl]piperidine-1-carboxylate] | 6.03e-09 M |  |  |  |  |  | 4.21E- 03 | 24.6% |  | Toxic @ 1 μM | 97.0% |  |  | 24.6% | 97.0% | Not active | 6.03e-09 M | 2.07E + 03 minutes | 
CC(C)(C)OC(=O)N1CCC(CCc2c(-c3ccc(S(C)(=O)=O)cc3)nn(-c3nc4cc(Cl)ccc4[nH]3)c2O)CC1 [Compound I-215, tert-butyl 4-{2-[1-(5-chloro-1H-1,3-benzodiazol-2-yl)-5-hydroxy-3-(4-methanesulfonylphenyl)-1H-pyrazol-4-yl]ethyl}piperidine-1-carboxylate] |  | 1.62e-07 M |  |  | 5.87E + 01 minutes |  | 1.00E- 02 | 53.5% |  | Toxic @ 1 μM | 74.5% |  |  |  |  | Not active |  |  | HIV-1 Infectivity % Inhibition Norm. to Δ-Nef @ 1 μM [2, 15]: 73.6%
Oc1c(CCc2ccc(F)cc2)c(-c2ccc(C(F)(F)F)cc2)nn1-c1nc2cccnc2[nH]1 [Compound I-301, 4-[2-(4-fluorophenyl)ethyl]-1-{1H-imidazo[4,5-b]pyridin-2-yl}-3-[4-(trifluoromethyl)phenyl]-1H-pyrazol-5-ol] |  | 6e-11 M |  | 6e-11 M |  |  | 1.34E- 02 | 81.2% | 81.2% | Toxic @ 1 μM | 90.7% | 3.69e-08 M | 1.74 nM |  |  |  |  |  | Kd [1, 16]: 2.31e-05 M; Toxicity % Viability @ 1 μM (TZM-bl) [4]: 90.7%
Oc1c(CCc2ccc(F)cc2)c(-c2ccc(C(F)(F)F)cc2)nn1-c1nc2ccncc2[nH]1 [Compound I-309, 4-[2-(4-fluorophenyl)ethyl]-1-{3H-imidazo[4,5-c]pyridin-2-yl}-3-[4-(trifluoromethyl)phenyl]-1H-pyrazol-5-ol] | 5.76e-10 M |  |  |  |  |  | 1.59E- 03 | 92.2% |  | Toxic @ 1 μM | 99.1% |  |  | 92.2% | 99.1% | Not active | 5.76e-10 M | 1.78E + 04 minutes | 
CC(C)OC(=O)N1CCC(c2nn(-c3nc4cc(Cl)ccc4[nH]3)c(O)c2CCC2CCOCC2)CC1 [Compound I-701, propan-2-yl4-[1-(5-chloro-1H-1,3-benzodiazol-2-yl)-5-hydroxy-4-[2-(oxan-4-yl)ethy1]-1H-pyrazol-3-yl]piperidine-1-carboxylate] | 2.64e-08 M | 2.88e-06 M | 2.88e-06 M | 2.88e-06 M | 4.73E + 00 minutes | 4.02e-06 M | 5.85E- 03 | 100% | 106% | Toxic @ 10 nM | 98.7% | 1.37e-07 M | 19300 nM | 106% | 98.7% |  |  |  | 
CC(=O)N1CCC(c2nn(-c3nc4ccc(Cl)cc4[nH]3)c(O)c2CCc2ccc(F)cc2)CC1 [Compound I-702, 1-{4-[1-(5-chloro-1H-1,3-benzodiazol-2-yl)-4-[2-(4-fluorophenyl)ethyl]-5-hydroxy-1H-pyrazol-3-yl]piperidin-1-yl}ethan-1-one] | 6.05e-07 M | 3.59e-06 M | 7.87e-07 M |  | 5.05E + 00 minutes | 2.72e-06 M | 1.56E- 02 | 100% |  | Toxic @ 10 nM | 96.4% |  |  | 148% | 96.4% |  |  |  | 
